Measurements from publication PMC6522510 (Nature Communications, 2019).
Values joined by “and” are separate entries in the source; they are usually repeats but may differ in a detail not shown here. Identical values can stand only once. Like-named read-outs stand apart in the source and are kept apart here.

Tests used:
U937 [1] = assay: cells; design: species or system AML cell lines (8); Secondary HTS, 10-point dose-response in triplicate, Cell Titer Glo viability, four-parameter fit EC50; details: Homo sapiens, U-937, 72 h, read-out: U937
CHRF288-11 [2] = assay: cells; design: species or system AML cell lines (8); Secondary HTS, 10-point dose-response in triplicate, Cell Titer Glo viability, four-parameter fit EC50; details: 72 h, read-out: CHRF288-11
CMK [3] = assay: Secondary dose-response HTS, Cell Titer Glo; type: cell-based, human; details: Homo sapiens, CMK, read-out: average effective concentration, CMK
M07e [4] = assay: cells; design: species or system AML cell lines (8); Secondary HTS, 10-point dose-response in triplicate, Cell Titer Glo viability, four-parameter fit EC50; details: M-07e, 72 h, read-out: M07e
MV4-11 [5] = assay: cells; design: species or system AML cell lines (8); Secondary HTS, 10-point dose-response in triplicate, Cell Titer Glo viability, four-parameter fit EC50; details: Homo sapiens, MV4-11, 72 h, read-out: MV4-11
ML-2 [6] = assay: cells; design: species or system AML cell lines (8); Secondary HTS, 10-point dose-response in triplicate, Cell Titer Glo viability, four-parameter fit EC50; details: Homo sapiens, ML-2, 72 h, read-out: ML-2
MOLM-13 [7] = assay: cells; design: species or system AML cell lines (8); Secondary HTS, 10-point dose-response in triplicate, Cell Titer Glo viability, four-parameter fit EC50; details: Homo sapiens, MOLM-13, 72 h, read-out: MOLM-13
CMS [8] = assay: Secondary dose-response HTS, Cell Titer Glo; type: cell-based, human; details: Homo sapiens, HTS, read-out: average effective concentration, CMS
M07e [9] = assay: Secondary dose-response HTS, Cell Titer Glo; type: cell-based, human; details: Homo sapiens, M-07e; secondary high-throughput screen; M07e; read-out: average effective concentration, M07e
CMK [10] = assay: cells; design: species or system AML cell lines (8); Secondary HTS, 10-point dose-response in triplicate, Cell Titer Glo viability, four-parameter fit EC50; details: Homo sapiens, CMK, 72 h, read-out: CMK
U937 [11] = assay: Secondary dose-response HTS, Cell Titer Glo; type: cell-based, human; details: Homo sapiens, U-937; secondary high-throughput screen; U937; read-out: average effective concentration, U937
CHRF288-11 [12] = assay: Secondary dose-response HTS, Cell Titer Glo; type: cell-based, human; details: Homo sapiens, HTS; secondary high-throughput screen; CHRF288-11; read-out: average effective concentration, CHRF288-11
ML2 = assay: Secondary dose-response HTS, Cell Titer Glo; type: cell-based, human; details: Homo sapiens; secondary high-throughput screen; ML-2; read-out: average effective concentration, ML-2
MV4-11 [13] = assay: Secondary dose-response HTS, Cell Titer Glo; type: cell-based, human; details: Homo sapiens; secondary high-throughput screen; MV4-11; read-out: average effective concentration, MV4-11
MOLM-13 [14] = assay: cells; design: species or system AML cell lines (8); Secondary HTS, 10-point dose-response in triplicate, Cell Titer Glo viability, four-parameter fit EC50; details: Homo sapiens; 72 h cell viability; read-out: MOLM-13
M07e [15] = test system: M07e; design: species or system AML cell lines (8); Primary HTS, single concentration about 10 uM, Cell Titer Glo viability; log10 luminescence, per cent inhibition relative to cycloheximide control; details: 72 h, relative to cycloheximide control, log10 luminescence, inhibitor
CMS [16] = test system: CMS; design: species or system AML cell lines (8); Primary HTS, single concentration about 10 uM, Cell Titer Glo viability; log10 luminescence, per cent inhibition relative to cycloheximide control; details: 72 h, relative to cycloheximide control, log10 luminescence, inhibitor
U937 [17] = test system: U937; design: species or system AML cell lines (8); Primary HTS, single concentration about 10 uM, Cell Titer Glo viability; log10 luminescence, per cent inhibition relative to cycloheximide control; details: 72 h, relative to cycloheximide control, log10 luminescence, inhibitor
ML-2 [18] = test system: ML-2; design: species or system AML cell lines (8); Primary HTS, single concentration about 10 uM, Cell Titer Glo viability; log10 luminescence, per cent inhibition relative to cycloheximide control; details: 72 h, relative to cycloheximide control, log10 luminescence, inhibitor
CHRF288-11 [19] = test system: CHRF288-11; design: species or system AML cell lines (8); Primary HTS, single concentration about 10 uM, Cell Titer Glo viability; log10 luminescence, per cent inhibition relative to cycloheximide control; details: 72 h, relative to cycloheximide control, log10 luminescence; inhibitor
MV4-11 [20] = test system: MV4-11; design: species or system AML cell lines (8); Primary HTS, single concentration about 10 uM, Cell Titer Glo viability; log10 luminescence, per cent inhibition relative to cycloheximide control; details: 72 h, relative to cycloheximide control, log10 luminescence, inhibitor
MOLM-13 [21] = test system: MOLM-13; design: species or system AML cell lines (8); Primary HTS, single concentration about 10 uM, Cell Titer Glo viability; log10 luminescence, per cent inhibition relative to cycloheximide control; details: 72 h, relative to cycloheximide control, log10 luminescence, inhibitor
CMS [22] = assay: cells; design: species or system AML cell lines (8); Secondary HTS, 10-point dose-response in triplicate, Cell Titer Glo viability, four-parameter fit EC50; details: 72 h, read-out: CMS
CMK [23] = test system: CMK; design: species or system AML cell lines (8); Primary HTS, single concentration about 10 uM, Cell Titer Glo viability; log10 luminescence, per cent inhibition relative to cycloheximide control; details: 72 h, relative to cycloheximide control, log10 luminescence, inhibitor
MOLM-13 [24] = assay: Secondary dose-response HTS, Cell Titer Glo; type: cell-based, human; details: Homo sapiens; secondary high-throughput screen; MOLM-13; read-out: average effective concentration, MOLM-13
[25] = secondary high-throughput screen
[26] = secondary high-throughput screen, CMS

Row | EC50 (U937 [1]) [µM] | EC50 (MV4-11 [5]) [µM] | EC50 (MOLM-13 [7]) [µM] | SMILES | EC50 (CHRF288-11 [2]) [µM] | EC50 (ML-2 [6]) [µM] | EC50 (CMS [8]; [26]) [µM] | EC50 (M07e [9]) [µM] | EC50 (CMK [10]) [µM] | EC50 (CMS [22]) [µM] | also measured
1 | > 10 | > 10 | > 10 | Cc1cc(Nc2nc(N[C@@H](C)c3ncc(F)cn3)ncc2Cl)n[nH]1 [AZD1480] | > 10 | > 10 | 3.3 |  |  |  | EC50 (CMK [3]; [25]): > 10 µM; EC50 (M07e [4]): > 10 µM
2 | > 10 | > 10 | > 10 | CCn1c(C(=O)N(C2CC2)C2CC2)cc2c3c(ncn3C)c(Nc3cc(C)n(C)n3)nc21 [BMS-911543] | > 10 | > 10 | 5 | 8.7 | > 10 |  | 
3 | > 10 | 0.125 | 0.0955 | Cc1cc(Nc2cc(N3CCN(C)CC3)nc(/C=C/c3ccccc3)n2)n[nH]1 [ENMD-2076] | > 10 | > 10 |  |  |  |  | EC50 (CMK [3]): 0.11 µM; EC50 (M07e [4]): > 10 µM; EC50 (CMS [8]): 3.2 µM
4 |  | > 10 | > 10 | CC(C)Oc1ccc(C(=O)N[C@H](CNC(=O)CN(C)C)Cc2ccc(-c3cn4cccc([C@H](C)O)c4n3)cc2)cc1Cl [GSK-923295] | > 10 | 0.0077 |  | 0.14 | > 10 |  | EC50 (U937 [11]): 0.001 µM; EC50 (CMS [8]): 0.011 µM
5 |  | > 10 | 0.0067 | CC(C)C[C@H](NC(=O)CNC(=O)c1cc(Cl)ccc1Cl)B(O)O [IXAZOMIB] |  | 0.0052 | 0.0056 | 0.011 |  |  | EC50 (CHRF288-11 [12]): 0.01 µM; EC50 (CMK [3]; [25]): 0.007 µM; EC50 (U937 [11]): 0.01 µM
6 |  |  |  | C[C@]12O[C@H](C[C@]1(O)CO)n1c3ccccc3c3c4c(c5c6ccccc6n2c5c31)CNC4=O [LESTAURTINIB] |  |  | 0.00755 | 0.001 |  |  | EC50 (ML2): 0.32 µM; EC50 (MV4-11 [13]): 3.2 µM; EC50 (CHRF288-11 [12]): 0.11 µM; EC50 (CMK [3]; [25]): 0.0033 µM; EC50 (MOLM-13 [14]): > 10 µM; EC50 (U937 [11]): 0.041 µM
7 | > 10 |  | > 10 | C[C@]1(O)C[C@@H](c2nc(-c3ccc4ccc(-c5ccccc5)nc4c3)c3c(N)nccn32)C1 [LINSITINIB] | > 10 | > 10 |  |  | > 10 | > 10 | M07e %inh (M07e [15]): 2.638%; EC50 (MV4-11 [13]): > 10 µM; CMS %inh (CMS [16]): 2.626%; EC50 (M07e [4]): > 10 µM; U937 %inh (U937 [17]): 2.082%; ML-2 %inh (ML-2 [18]): 11.6%; CHRF288-11 %inh (CHRF288-11 [19]): 34.61%; MV4-11 %inh (MV4-11 [20]): 7.816%; MOLM-13 %inh (MOLM-13 [21]): 2.501%; CMK %inh (CMK [23]): 18.57%
8 | > 10 | > 10 | > 10 | O=c1cc(N2CCOCC2)oc2c(-c3ccccc3)cccc12 [LY-294002] | > 10 | > 10 | > 10 | > 10 | > 10 |  | 
9 | > 10 | > 10 | 0.0058 | Cc1ccc(C(=O)Nc2ccc(Oc3cc4cnn(C)c4cc3-c3cn[nH]c3)c(F)c2)c(=O)n1-c1ccc(F)cc1 [Merestinib] | > 10 | > 10 |  | 0.025 | > 10 | > 10 | 
10 | > 10 | > 10 | > 10 | Cc1cn(-c2cc(NC(=O)c3ccc(C)c(Nc4nccc(-c5cccnc5)n4)c3)cc(C(F)(F)F)c2)cn1 [NILOTINIB] | > 10 | > 10 |  | > 10 | > 10 | > 10 | 
11 | > 10 | > 10 | > 10 | CCCc1nc(C(C)(C)O)c(C(=O)OCc2oc(=O)oc2C)n1Cc1ccc(-c2ccccc2-c2nnn[nH]2)cc1 [OLMESARTAN MEDOXOMIL] | > 10 | > 10 |  | 5.8 | > 10 | > 10 | M07e %inh (M07e [15]; M07e %inh, 10 µM): -0.6363% and -1.428%; CMS %inh (CMS [16]; CMS %inh, 10 µM): -4.154% and -3.286%; U937 %inh (U937 [17]; U937 %inh, 10 µM): -0.6807% and -1.42%; ML-2 %inh (ML-2 [18]; ML-2 %inh, 10 µM): 0.6032% and 1.808%; MV4-11 %inh (MV4-11 [20]; MV4-11 %inh, 10 µM): 1.21% and -0.1295%; MOLM-13 %inh (MOLM-13 [21]; MOLM-13 %inh, 10 µM): 3.566% and -1.782%; CMK %inh (CMK [23]; CMK %inh, 10 µM): 0.5387% and -8.221%
12 |  |  |  | CO[C@H]1C[C@@H]2CC[C@@H](C)[C@@](O)(O2)C(=O)C(=O)N2CCCC[C@H]2C(=O)O[C@H]([C@H](C)C[C@@H]2CC[C@@H](O)[C@H](OC)C2)CC(=O)[C@H](C)/C=C(\C)[C@@H](O)[C@@H](OC)C(=O)[C@H](C)C[C@H](C)/C=C/C=C/C=C/1C [SIROLIMUS] | > 10 | > 10 | > 10 |  | > 10 |  | EC50 (MV4-11 [13]): 0.001 µM; EC50 (MOLM-13 [24]): > 10 µM; EC50 (M07e [4]): > 10 µM; EC50 (U937 [11]): 0.001 µM
13 | > 10 | > 10 | > 10 | COc1cccc2c1c(O)c(C(=O)N(C)c1ccc(C(F)(F)F)cc1)c(=O)n2C [TASQUINIMOD] | > 10 | > 10 |  | 1.2 | > 10 | > 10 | 

Row | SMILES | EC50 (U937 [1]) [µM] | EC50 (MV4-11 [5]) [µM] | EC50 (MOLM-13 [7]) [µM] | EC50 (CHRF288-11 [2]) [µM] | EC50 (ML-2 [6]) [µM] | EC50 (CMS [8]; [26]) [µM] | EC50 (M07e [9]) [µM] | EC50 (CMK [10]) [µM] | EC50 (CMS [22]) [µM] | also measured
14 | O=C1CCC[C@@H]2[C@H]3CCC[N+]4([O-])CCC[C@@H](CN12)[C@@H]34 (stereo partly drawn) [OXYMATRINE] | > 10 | > 10 | > 10 | > 10 | > 10 |  | 0.058 | > 10 | > 10 | 
15 | CS(=O)(=O)c1ccc(-c2cnc(N)c(C(=O)Nc3ccccc3)n2)cc1 [VE-821] | > 10 | > 10 | > 10 | > 10 | > 10 |  | 6.7 | > 10 | > 10 | 
